Series [1] can be described thus: Encapsulation rate of siRNA in nucleic acid lipid particles (Luc2-siRNA). The settings on record: compound/DSPC/cholesterol/DMG-PEG2000 50/10/38.5/1.5. It counts as physicochemical. A digest of the protocol: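 Encapsulation rate was calculated as (total − outer-phase siRNA)/total ×100. Total siRNA was quantified spectrophotometrically after lipid-dissolving ethanol precipitation, and unencapsulated siRNA by RiboGreen in TE (ex 485/em 535 nm). The particles were test lipid/DSPC/cholesterol/DMG-PEG2000 at 50/10/38.5/1.5, formed by microfluidic mixing with Luc2-siRNA at pH 4 and dialyzed against PBS.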

Series [2] relates to Factor VII (FVII) protein. Briefly: Measurement of Factor VII (FVII) protein in mouse plasma after FVII-siRNA lipid particles. It counts as in vivo, C57BL6/J mice. As to conditions: 0.1 mg/kg caudal vein, plasma 24 hours after administration, PBS group = 100%. A digest of the protocol: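 C57BL6/J mice (n=3) received FVII-siRNA nucleic acid lipid particles at 0.1 mg/kg into the tail vein; controls got PBS. Each value is the percentage of the PBS-group FVII level.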

In series [3] the test system is DMS273 cells constantly expressing Luc. The series can be described thus: Target reporter protein (Luc) knockdown in cell, reporter protein assay. It counts as cell-based. As to conditions: Homo sapiens, DMS-273. A digest of the protocol: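 Nucleic acid lipid particles added at final 0.1 to 100 nmol/L to DMS273 human SCLC cells stably expressing Luc2, 24 hr exposure then 24 hr further culture after medium change. Luc quantified by Steady Glo luminescence after viable cell count; knockdown efficiency calculated and IC50 taken as concentration giving 50% Luc reduction.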

The nature of series [4]: Particle size of nucleic acid lipid particles (FVII-siRNA). It counts as physicochemical. In a few lines:
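Lipid particles formed by micromixing ethanolic ionizable lipid/DSPC/cholesterol/DMG-PEG2000 (50/10/38.5/1.5 mol) with siRNA in pH 4 acetate buffer (3:1 water:oil), diluted with PBS and dialysed against PBS.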

A short description of series [5]: Particle size of nucleic acid lipid particles (Luc2-siRNA). It counts as physicochemical. The settings on record: compound/DSPC/cholesterol/DMG-PEG2000 50/10/38.5/1.5. A digest of the protocol: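 Particle size was read by ELS-Z2 light scattering on nucleic acid lipid particles after dialysis against PBS. These were made by micromixing Luc2-siRNA (19.7 μmol/L, pH 4 acetate) with ethanolic lipids (test lipid/DSPC/cholesterol/DMG-PEG2000 50/10/38.5/1.5, 20 mmol/L) at 3:1 water:oil, siRNA/lipid 339 mol/mol.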

Series [6] in a line: Nucleic acid encapsulation rate of nucleic acid lipid particles (FVII-siRNA). It counts as physicochemical. A digest of the protocol:
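Total nucleic acid was measured by adding 30 μL of 3 mol/L sodium acetate and 9 μL of glycogen to 60 μL of FVII-siRNA lipid particles, then precipitating with 1.5 mL ethanol, centrifuging, air-drying, redissolving in water, and reading on a Nanodrop. Outer-phase nucleic acid came from a RiboGreen assay (ex 485 nm, em 535 nm) on samples diluted 10,000× in 1×TE. Encapsulation (%) = (total − outer)/total × 100.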

The mark [7] stands for this setting: Luc2-siRNA lipid particles using the compound, siRNA 0.1 to 100 nmol/L, concentration at which Luc expression is knocked down to 50%, read-out: IC50.

pIC50: −log10 of the molar value. Like-named read-outs stand apart in the source and are kept apart here.

On to `CCCCCCCCCCC(CCCCCCCCC(=O)OCC(CCCC)CCCCCC)OC(=O)OCCN(CC)CCN(CC)CC` (stereo not drawn) [Example 68, 2-Butyloctyl 12-decyl-3,6-diethyl-10-oxo-9,11-dioxa-3,6-diazahenicosan-21-oate], for which the figures for the “Nucleic acid encapsulation rate” value in series [1] and in series [6] were 97% and 91%, respectively. The “Relative amount of FVII protein (%)” value in series [2] stood at 9%. Also, in series [3] (setting [7]), the pIC50 is 7.43. Moreover, the “Particle size (nm)” value is recorded as 84.5 nm in series [4] and 70.7 nm in series [5].

Take `CCCCCCCCCCC(CCCCCCCCC(=O)OCC(CCCC)CCCCCC)OC(=O)OCCN(CCN(CC)CC)C(C)C` (stereo not drawn) [Example 69, 2-Butyloctyl 12-decyl-3-ethyl-6-isopropyl-10-oxo-9,11-dioxa-3,6-diazahenicosan-21-oate]: the “Nucleic acid encapsulation rate” value in series [1] was determined as 98%; in series [6], 97%. Also, in series [2], the “Relative amount of FVII protein (%)” value is 6%. For the same compound, the pIC50 in series [3] (setting [7]) was 7.55. Further, the entries for the “Particle size (nm)” value in series [4] and in series [5] were 86.8 nm and 67.6 nm, respectively.

With `CCCCCCC(CCCC)COC(=O)CCCCCCCCC(CCCCCCCCC(=O)OCC(CCCC)CCCCCC)OC(=O)OCCN(CC)CCN(CC)CC` (stereo not drawn) [Example 72, Bis(2-butyloctyl)10-(((2-((2-(diethylamino)ethyl)(ethyl)amino)ethoxy)carbonyl)oxy)nonadecanedioate], the “Nucleic acid encapsulation rate” value was determined as 81% in series [1] and 85% in series [6]. For the same compound, in series [2], the “Relative amount of FVII protein (%)” value is 6%. In addition, the pIC50 in series [3] (setting [7]) was 7.51. The “Particle size (nm)” value in series [4] turned out to be 72.4 nm; in series [5], 74.2 nm.

As to `CCCCCCCCCC(CCCCCCCCC(=O)OCC(CCCC)CCCCCC)OC(=O)OCCN(CC)CCN(CC)CC` (stereo not drawn) [Example 75, 2-Butyloctyl 3,6-diethyl-12-nonyl-10-oxo-9,11-dioxa-3,6-diazahenicosan-21-oate], the “Nucleic acid encapsulation rate” value in series [1] was 76%; in series [6], 83%. Further, in series [2], the “Relative amount of FVII protein (%)” value came out at 17%. Moreover, in series [3] (setting [7]), the pIC50 was 8.10. The “Particle size (nm)” value in series [4] turned out to be 79.1 nm; in series [5], 65.4 nm.

As to `CCCCCCCCCC(=O)OCCCCCCC(CCCCCCOC(=O)CC(CCCCCCC)CCCCCCC)OC(=O)OCCN(CC)CCN(CC)CC` (stereo not drawn) [Example 78, 12-(6-(Decanoyloxy)hexyl)-3,6-diethyl-10-oxo-9,11-dioxa-3,6-diazooctadecan-18-yl 3-heptyldecanoate], the “Nucleic acid encapsulation rate” value stood at 75% in series [1] and 78% in series [6]. In series [2], the “Relative amount of FVII protein (%)” value is reported as 10%. The compound also showed a negative logarithm of the IC50 (pIC50) in series [3] of 7.80. For the same compound, the “Particle size (nm)” value in series [4] came out at 74.2 nm; in series [5], 71.7 nm.

Consider `CCCCCCCCCC(=O)OCCN(CCOC(=O)OC(CCCCCC)CCCCCCCCC(=O)OCC(CCCC)CCCCCC)CCN(CC)CC` (stereo not drawn) [Example 87, 2-Butyloctyl 6-(2-(decanoyloxy)ethyl)-3-ethyl-12-hexyl-10-oxo-9,11-dioxa-3,6-diazahenicosan-21-oate], for which the “Nucleic acid encapsulation rate” value was 79% in series [1] and 87% in series [6]. The “Relative amount of FVII protein (%)” value in series [2] came out at 3%. In series [3] (setting [7]), the pIC50 was 7.47. Further, the “Particle size (nm)” value in series [4] worked out at 69.3 nm; in series [5], 69.2 nm.

For the compound `CCCCCCCC(=O)OCCN(CCOC(=O)OC(CCCCCC)CCCCCCCCC(=O)OCC(CCCC)CCCCCC)CCN(CC)CC` (stereo not drawn) [Example 88, 2-Butyloctyl 3-ethyl-12-hexyl-6-(2-(octanoyloxy)ethyl)-10-oxo-9,11-dioxa-3,6-diazahenicosan-21-oate], the “Nucleic acid encapsulation rate” value in series [1] turned out to be 81%; in series [6], 83%. For the same compound, the “Relative amount of FVII protein (%)” value in series [2] amounted to 2%. Moreover, the pIC50 in series [3] (setting [7]) is 7.64. Also, the figures for the “Particle size (nm)” value in series [4] and in series [5] were 78.7 nm and 74.6 nm, respectively.

`CCCCCCCC/C=C\CCCCCCCC(=O)OCCN(CCCN(CC)CC)CCOC(=O)OC(CCCCCC)CCCCCCCCC(=O)OCC(CCCC)CCCCCC` (stereo not drawn) [Example 93, 2-Butyloctyl 3-ethyl-13-hexyl-7-(2-(oleoyloxy)ethyl)-11-oxo-10,12-dioxa-3,7-diazadocosan-22-oate]: the results for the “Nucleic acid encapsulation rate” value in series [1] and in series [6] were 70% and 73%, respectively. The “Relative amount of FVII protein (%)” value in series [2] stood at 7%. The pIC50 in series [3] (setting [7]) was 7.66. For the same compound, the “Particle size (nm)” value in series [4] came out at 67.8 nm; in series [5], 70.4 nm.

For the compound `CCCCCCCCC(CCCCCC)COC(=O)CCCCCCC(CCCCCC)OC(=O)OCCN(CCN(CC)CC)C(C)C` (stereo not drawn) [Example 94, 2-Hexyldecyl 3-ethyl-12-hexyl-6-isopropyl-10-oxo-9,11-dioxa-3,6-diazanonadecan-19-oate], the “Nucleic acid encapsulation rate” value in series [1] is 76%; in series [6], 75%. Further, in series [2], the “Relative amount of FVII protein (%)” value is reported as 8%. In addition, in series [3] (setting [7]), the pIC50 is 7.41. The “Particle size (nm)” value is reported as 86.1 nm in series [4] and 72.7 nm in series [5].

For the compound `CCCCCCCCC(CCCCCC)COC(=O)CCCCCCCCC(CCCCCC)OC(=O)OCCN(CCOC(=O)CCCCC)CCN(CC)CC` (stereo not drawn) [Example 100, 2-Hexyldecyl 3-ethyl-6-(2-(hexanoyloxy)ethyl)-12-hexyl-10-oxo-9,11-dioxa-3,6-diazahenicosan-21-oate], the “Nucleic acid encapsulation rate” value in series [1] came out at 82%; in series [6] it was 80%. For the same compound, in series [2], the “Relative amount of FVII protein (%)” value came out at 2%. Also, the pIC50 in series [3] (setting [7]) is 7.59. The “Particle size (nm)” value in series [4] stood at 85.1 nm; in series [5], 76.7 nm.

Take `CCCCCCCCC(=O)OCCN(CCOC(=O)OC(CCCCCC)CCCCCCCCC(=O)OCC(CCCC)CCCCCC)CCN(CC)CC` (stereo not drawn) [Example 103, 2-Butyloctyl 3-ethyl-12-hexyl-6-(2-(nonanoyloxy)ethyl)-10-oxo-9,11-dioxa-3,6-diazahenicosan-21-oate]: the results for the “Nucleic acid encapsulation rate” value in series [1] and in series [6] were 80% and 79%, respectively. Moreover, the “Relative amount of FVII protein (%)” value in series [2] is 2%. Moreover, the pIC50 in series [3] (setting [7]) was 7.85. Besides, the “Particle size (nm)” value worked out at 69.8 nm in series [4] and 64.3 nm in series [5].

Consider `CCCCCCC(=O)OCCN(CCOC(=O)OC(CCCCCC)CCCCCCCCC(=O)OCC(CCCC)CCCCCC)CCN(CC)CC` (stereo not drawn) [Example 104, 2-Butyloctyl 3-ethyl-6-(2-(heptanoyloxy)ethyl)-12-hexyl-10-oxo-9,11-dioxa-3,6-diazahenicosan-21-oate], for which the results for the “Nucleic acid encapsulation rate” value in series [1] and in series [6] were 81% and 69%, respectively. Also, the “Relative amount of FVII protein (%)” value in series [2] is on record as 1%. In series [3] (setting [7]), the pIC50 is 8.40. Also, the “Particle size (nm)” value in series [4] stood at 85.8 nm; in series [5] it was 76.6 nm.

With `CCCCCCC(CCCC)COC(=O)CCCCCCCCC(CCCCCC)OC(=O)OCCN(CCOC(=O)CCCCC)CCN(CC)CC` (stereo not drawn) [Example 105, 2-Butyloctyl 3-ethyl-6-(2-(hexanoyloxy)ethyl)-12-hexyl-10-oxo-9,11-dioxa-3,6-diazahenicosan-21-oate], the results for the “Nucleic acid encapsulation rate” value in series [1] and in series [6] were 81% and 73%, respectively. In addition, the “Relative amount of FVII protein (%)” value in series [2] was 7%. Besides, in series [3] (setting [7]), the pIC50 is 7.55. In addition, the “Particle size (nm)” value in series [4] is 102.4 nm; in series [5] it was 100 nm.

With `CCCCCCCCCCCC(=O)OCCN(CCOC(=O)OC(CCCCCC)CCCC(=O)OCC(CCCC)CCCCCC)CCN(CC)CC` (stereo not drawn) [Example 106, 2-Butyloctyl 6-(2-(dodecanoyloxy)ethyl)-3-ethyl-12-hexyl-10-oxo-9,11-dioxa-3,6-diazahexadecan-16-oate], the “Nucleic acid encapsulation rate” value turned out to be 80% in series [1] and 85% in series [6]. Also, the “Relative amount of FVII protein (%)” value in series [2] is 2%. In series [3] (setting [7]), the pIC50 was 7.43. Besides, the results for the “Particle size (nm)” value in series [4] and in series [5] were 66.4 nm and 62.4 nm, respectively.

The values are drawn from patent US12370143B2, “Compound or salt thereof and lipid particles” (FUJIFILM Corporation, priority 2018, dated 2025).
